target: T1, 3-phosphoinositide-dependent protein kinase 1 (Homo sapiens) (UniProt O15530); assay: Inhibition of PDK1 (unknown origin) at 10 uM using PDKtide substrate and [gamma-32P]ATP by scintillation counting method
T1 sequence (whole entry): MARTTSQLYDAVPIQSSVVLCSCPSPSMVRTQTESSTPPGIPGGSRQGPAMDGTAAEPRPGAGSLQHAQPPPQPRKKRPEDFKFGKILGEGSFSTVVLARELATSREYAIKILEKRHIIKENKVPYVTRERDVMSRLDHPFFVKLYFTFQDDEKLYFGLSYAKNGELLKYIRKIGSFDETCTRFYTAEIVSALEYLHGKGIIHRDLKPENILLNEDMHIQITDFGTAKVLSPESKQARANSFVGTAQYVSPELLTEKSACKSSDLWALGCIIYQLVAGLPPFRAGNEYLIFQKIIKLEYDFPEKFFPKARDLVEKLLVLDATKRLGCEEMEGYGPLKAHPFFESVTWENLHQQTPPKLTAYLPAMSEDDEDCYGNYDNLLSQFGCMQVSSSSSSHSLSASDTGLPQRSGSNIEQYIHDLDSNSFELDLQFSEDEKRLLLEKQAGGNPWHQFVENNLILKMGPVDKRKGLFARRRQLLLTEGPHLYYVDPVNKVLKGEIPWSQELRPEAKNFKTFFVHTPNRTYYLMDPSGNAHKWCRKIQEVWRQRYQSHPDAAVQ

Row | inhibition [%] | Structure (SMILES)
1 | 30 | N#Cc1cccc(Nc2cc3cc(NC(=O)N4CCCC4)ccc3[nH]c2=O)c1
2 | 20 | CC(=O)Nc1cccc(Nc2cc3cc(NC(N)=O)ccc3[nH]c2=O)c1
3 | 36 | O=C(Cc1ccc2[nH]c(=O)c(Nc3ccccc3)cc2c1)NCCN1CCCCC1
4 | 23 | CCOc1cccc(Nc2cc3cc(NC(=O)N4CCCC4)ccc3[nH]c2=O)c1
5 | 40 | NC(=O)Nc1ccc2[nH]c(=O)c(Nc3cc(CC(=O)NCCN4CCCCC4)cc(NC(=O)N4CCCC4)c3)cc2c1
6 | 14 | O=C(Nc1ccc2[nH]c(=O)c(Nc3cccc(-c4nnn[nH]4)c3)cc2c1)N1CCCC1
7 | 40 | NC(=O)Nc1ccc2[nH]c(=O)c(Nc3cccc(NC(=O)N4CCCC4)c3)cc2c1
8 | 29 | COc1cccc(-c2cccc(Nc3cc4cc(NC(=O)N5CCCC5)ccc4[nH]c3=O)c2)c1

target: T2, 3-phosphoinositide-dependent protein kinase 1 (Homo sapiens, UniProt O15530); assay: Inhibition of PDK1 (unknown origin) using PDKtide substrate and [gamma-32P]ATP by scintillation counting method
T2 sequence (O15530 whole entry): T1 sequence (whole entry)

Row | Structure (SMILES) | IC50 [nM]
9 | CN[C@@H]1CCc2ccccc21 | 200

From ChEMBL document CHEMBL3351983, “Synthesis and biological evaluation of substituted 3-anilino-quinolin-2(1H)-ones as PDK1 inhibitors” (Bioorg Med Chem, 2014)
